Measurements as given in patent publication US20030065015A1 (priority 2001, published 2003).
Values joined by “and” are separate entries in the source; they are usually repeats but may differ in a detail not shown here. Equal values may be shown once.

What was measured:
[1] = pH=6
physchem = details: pH 6
[2] = type: physicochemical; details: pH 0

SMILES | partition coefficient [1] | logD (physchem) | Ko/a [2]
C[n+]1ccccc1/C=N/O [2-PAM chloride, 2-[(hydroxyimino)methyl]-1-methylpyrdinium chloride] | 0.79 | -3.12 | –
CN(C)C(=O)Oc1ccc[n+](C)c1.[Br-] [Pyridostigmine Bromide, 3-dimethylaminocarbonyloxy-N-methylpyridinium bromide] | – | – | 1.9 × 10^−3 and 2.3 × 10^−2 and 2.0 × 10^−2
